#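 Grown in 96-well plates, cells were treated for 48 hours with each compound at five concentrations. Insufficient inhibition: endpoint recorded as highest concentration tested. The concentration for full growth arrest is given as TGI.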
# Legend:
# Assay in all cases: NCI tumour cell line growth inhibition, 48 h
# HCC-2998 colon = test system: HCC-2998 colon
# NCI/ADR-RES ovarian = test system: NCI/ADR-RES ovarian
# RPMI-8226 leukemia = test system: RPMI-8226 leukemia
# SN12C renal = test system: SN12C renal
# BT-549 breast = test system: BT-549 breast
# HCT-15 colon = test system: HCT-15 colon
# MCF7 breast = test system: MCF7 breast
# HS 578T breast = test system: HS 578T breast
# MDA-MB-231 breast = test system: MDA-MB-231 breast
# PC-3 prostate = test system: PC-3 prostate
# SF-268 CNS = test system: SF-268 CNS
# HOP-92 NSCLC = test system: HOP-92 NSCLC
# HT29 colon = test system: HT29 colon
# ACHN renal = test system: ACHN renal
# EKVX NSCLC = test system: EKVX NSCLC
# LOX IMVI melanoma = test system: LOX IMVI melanoma
# OVCAR-5 ovarian = test system: OVCAR-5 ovarian
# A498 renal = test system: A498 renal
# NCI-H23 lung = test system: NCI-H23 lung
SMILES,TGI (HCC-2998 colon) [µM],TGI (NCI/ADR-RES ovarian) [µM],TGI (RPMI-8226 leukemia) [µM],TGI (SN12C renal) [µM],TGI (BT-549 breast) [µM],TGI (HCT-15 colon) [µM],TGI (MCF7 breast) [µM],TGI (HS 578T breast) [µM],TGI (MDA-MB-231 breast) [µM],TGI (PC-3 prostate) [µM],TGI (SF-268 CNS) [µM],TGI (HOP-92 NSCLC) [µM],TGI (HT29 colon) [µM],TGI (ACHN renal) [µM],TGI (EKVX NSCLC) [µM],TGI (LOX IMVI melanoma) [µM],TGI (OVCAR-5 ovarian) [µM],TGI (A498 renal) [µM],TGI (NCI-H23 lung) [µM]
O=Nc1c(NO)ccc2nn(-c3ccccc3)nc12,85.5,> 100,> 100,40,> 100,> 100,19.6,> 100,> 100,> 100,> 100,> 100,> 100,47.7,> 100,> 100,37.6,,
CCOC(=O)c1cc(Br)c(-c2onc(C)c2Br)n1C,> 100,> 100,> 100,56.8,> 100,> 100,77.5,> 100,> 100,> 100,> 100,,,> 100,85.6,> 100,68.8,> 100,> 100
COc1cc2c(cc1OC)C(=O)/C(=C/c1ccc([N+](=O)[O-])cc1)CC2,> 10,> 10,> 10,> 10,> 10,> 10,> 10,> 10,> 10,> 10,> 10,> 10,> 10,> 10,> 10,> 10,> 10,,> 10
COc1cccc(C2c3cc4c(cc3OC(N3CCCCC3)C2C)OCO4)c1OC (centres undefined),33,,21.6,96.8,57.4,26.3,52.1,29.5,41,42.8,48.4,37.9,19.8,35.1,54.5,20.1,79.4,28.4,71.3
NC(CC(=O)O)(Cc1ccccc1)C(=O)O (centres undefined),,> 100,> 100,> 100,> 100,> 100,> 100,> 100,> 100,> 100,,> 100,> 100,> 100,> 100,> 100,> 100,> 100,> 100
Fc1c(F)c(C(F)(F)F)c(F)c(F)c1N/N=C/c1cn(Cc2ccccc2)c2ccccc12,,59.1,62.7,92,80.7,> 100,69.5,> 100,45.6,79.2,> 100,60.2,49.3,81.7,43,47.3,41.9,88.6,79.9
CC1C(O)Oc2cc3c(cc2C1c1ccccc1O)OCO3 (centres undefined),> 100,,48.1,> 100,> 100,> 100,> 100,46.6,65.4,65.7,> 100,47.2,66.6,> 100,> 100,> 100,> 100,82.7,> 100
CCn1c2ccccc2c2cc(NC(=O)c3c(NCCNCCO)nc(=O)[nH]c3C)ccc21,> 100,> 100,,> 100,> 100,> 100,> 100,> 100,> 100,> 100,> 100,> 100,> 100,> 100,> 100,> 100,> 100,> 100,> 100
COC(=O)c1ccc(NCC2=CC(=O)C=CC2=O)cc1,38.8,35.5,7.22,,27,25.9,30.8,> 100,30.7,37,28.8,10.5,38.8,27,28.2,17.8,32.3,27.6,29.8
N#CCc1nc(-c2cc3c(ccc4ccccc43)oc2=O)cs1,> 100,70.2,> 100,> 100,31.5,> 100,> 100,63.4,39,> 100,> 100,44.5,> 100,79.1,> 100,> 100,> 100,,
CCOP(=O)(OCC)C(F)(F)Cc1cnc(C)c2c1COC(C)(C)O2,> 10,> 10,> 10,> 10,> 10,> 10,> 10,> 10,> 10,> 10,> 10,> 10,> 10,> 10,> 10,,> 10,> 10,> 10
N#CC(c1ccccc1)N(CCOCCOCCN(C(=O)c1cccc2ccccc12)C(C#N)c1ccccc1)C(=O)c1cccc2ccccc12 (centres undefined),> 100,> 100,,> 100,> 100,> 100,> 100,> 100,> 100,> 100,> 100,,> 100,> 100,> 100,> 100,> 100,> 100,> 100
CC12C(=O)OC(=O)C1(C)C1C=CC2O1 (centres undefined),> 100,> 100,> 100,> 100,> 100,> 100,> 100,> 100,> 100,> 100,> 100,,> 100,> 100,> 100,> 100,> 100,> 100,> 100
C=C(CN)CO[Si](C)(C)C(C)(C)C,> 100,> 100,> 100,> 100,> 100,> 100,> 100,> 100,> 100,> 100,> 100,,> 100,> 100,> 100,> 100,> 100,> 100,> 100
COc1ccc(N=CN(C)C)c(C)c1,,> 100,> 100,64,58.2,> 100,44.3,19.8,58,31,> 100,36.3,44.6,66.3,> 100,15.2,> 100,60.5,7.23
O=c1c2cc(S(=O)(=O)Nc3c(Cl)cccc3Cl)ccc2ncn1NS(=O)(=O)c1ccc2ccccc2c1,> 62.5,> 62.5,> 62.5,> 62.5,> 62.5,> 62.5,> 62.5,> 62.5,> 62.5,> 62.5,> 62.5,> 62.5,> 62.5,> 62.5,> 62.5,> 62.5,> 62.5,,> 62.5
O=C(O)c1ccc(NNC(=O)c2cccc3c(=O)c4ccccc4[nH]c23)cc1,> 100,> 100,> 100,> 100,> 100,> 100,> 100,> 100,> 100,> 100,> 100,> 100,> 100,> 100,> 100,> 100,> 100,,> 100
CCOC(=O)c1cc2cc(C)cc(C(=O)c3ccc([N+](=O)[O-])cc3)c2[nH]1,> 100,,> 100,> 100,> 100,> 100,> 100,> 100,> 100,> 100,> 100,> 100,> 100,> 100,> 100,> 100,> 100,> 100,> 100
O=C(CC(=O)N1N=C(N(c2ccccc2)c2ccccc2)CC1c1ccccc1)Nc1ccccc1 (centres undefined),> 100,> 100,> 100,,> 100,> 100,> 100,> 100,> 100,> 100,> 100,> 100,> 100,> 100,> 100,,> 100,,> 100
O=C(OCc1ccccc1)N1CCCc2c(n(S(=O)(=O)c3ccccc3)c3ccccc23)C1,,> 100,> 100,> 100,> 100,> 100,> 100,> 100,> 100,> 100,> 100,> 100,> 100,> 100,> 100,> 100,> 100,> 100,> 100
CC1=CC(=O)/C(=C/n2c(=S)[nH]c3ccc([N+](=O)[O-])cc32)C(=O)O1,> 100,> 100,> 100,> 100,> 100,> 100,> 100,> 100,> 100,> 100,> 100,> 100,> 100,> 100,> 100,> 100,> 100,,> 100
O=C(COc1ccc(Cl)cc1Cl)N/N=C/C=C/c1ccc([N+](=O)[O-])o1,,> 100,9.22,> 100,58,> 100,> 100,7.4,95.6,> 100,> 100,,> 100,> 100,> 100,38.9,> 100,> 100,39
O=C(c1cccs1)N(Cc1cccnc1)C(=S)N(Cc1cccnc1)C(=O)c1cccs1,> 100,> 100,,> 100,> 100,> 100,> 100,> 100,> 100,> 100,> 100,> 100,> 100,> 100,> 100,> 100,> 100,97.4,> 100
COc1ccc(-n2sc3ncc([N+](=O)[O-])cc3c2=O)cc1,> 100,> 100,> 100,> 100,> 100,> 100,> 100,> 100,> 100,> 100,> 100,,> 100,> 100,> 100,> 100,> 100,,> 100
COC(=O)c1ccccc1C1CN=NC12Cc1cc(C)cc(C)c1C2=O (centres undefined),> 100,> 100,,> 100,> 100,76.6,> 100,> 100,> 100,> 100,> 100,> 100,> 100,> 100,> 100,> 100,> 100,66.2,> 100
O=C(c1ccccc1)C1C[C@H]2CO[C@H](c3ccccc3)N2C1=O (some centres undefined),> 100,> 100,> 100,> 100,> 100,> 100,> 100,> 100,> 100,> 100,> 100,> 100,> 100,> 100,> 100,> 100,> 100,,> 100

# From PubChem BioAssay (NCI)
